Test results: patent publication US20130237535A1, “FATTY ACID SYNTHASE INHIBITORS” (priority 2010, published 2013)

Molecular target: FAS (Homo sapiens, UniProt P49327)
Test: FAS assay (Assay #1 residual NADPH detection or Assay #2 CoA detection with thio-reactive coumarin dye)
Type: biochemical
Conditions: average IC50 values, each compound tested two or more times; FAS Assay #1 or #2
Description: FAS activity was measured through one of the two following assays.
Inhibition of FAS activity can be measured based on the detection of residual NADPH substrate after the FAS assay is quenched. This assay is run as a 10 μL, endpoint assay in 384-well format, where the reaction contains 20 μM malonyl-CoA, 2 μM acetyl-CoA, 30 μM NADPH and 40 nM FAS in 50 mM sodium phosphate, pH 7.0. The assay is run by sequentially dispensing 5 μl of a malonyl-CoA solution, then enzyme solution (containing the acetyl-CoA, and NADPH) into a black, low volume assay plate (Greiner 784076) pre-dispensed with 100 nL compound solutions in DMSO. The reaction is incubated at ambient temperature for 60 minutes, then quenched with 5 μL, of a developing solution composed of 90 μM resazurin, 0.3 IU/ml diaphorase in 50 mM sodium phosphate, pH 7.0. The developed reaction is read on a Molecular Devices Analyst or Acquest (or equivalent) plate reader using a 530 nm excitation wavelength filter, a 580 nm emission filter, and 561 nm dichroic filter. The test compounds are prepared in neat DMSO at a concentration of 10 mM. For inhibition curves, compounds are diluted using a three fold serial dilution and tested at 11 concentrations (e.g. 25 μM-0.42 nM). Curves are analysed using ActivityBase and XLfit, and results are expressed as pIC50 values.
Inhibition of FAS can also be quantified based on the detection of the CoA products with a thio-reactive coumarin dye. This assay is run as a 10 μL endpoint assay in 384-well format, where the reaction contains 20 μM malonyl-CoA, 20 μM acetyl-CoA, 40 μM NADPH and 2 nM FAS in 50 mM sodium phosphate, pH 7.0, and 0.04% Tween-20. The assay is run by adding 5 μL enzyme solution to a black, low volume assay plate (Greiner 784076) pre-dispensed with 100 nl compound solutions in DMSO. After 30 minutes, 5 μL substrate is added, and the reaction incubated at ambient temperature for an additional 60 minutes. The reaction is then quenched with 10 μL of 6M guanidine-HCl containing 50 μM CPM (7-diethylamino-3-(4′-maleimidylphenyl)-4-methylcoumarin (CPM; thio-reactive dye), and incubated for 30 minutes. The plate is read on an Envision (PerkinElmer) or equivalent plate reader using a 380 nm excitation wavelength filter, and a 486 nm emission filter. Data fitting and compound preparations are done as described above.

Sequence of FAS (P49327 whole entry): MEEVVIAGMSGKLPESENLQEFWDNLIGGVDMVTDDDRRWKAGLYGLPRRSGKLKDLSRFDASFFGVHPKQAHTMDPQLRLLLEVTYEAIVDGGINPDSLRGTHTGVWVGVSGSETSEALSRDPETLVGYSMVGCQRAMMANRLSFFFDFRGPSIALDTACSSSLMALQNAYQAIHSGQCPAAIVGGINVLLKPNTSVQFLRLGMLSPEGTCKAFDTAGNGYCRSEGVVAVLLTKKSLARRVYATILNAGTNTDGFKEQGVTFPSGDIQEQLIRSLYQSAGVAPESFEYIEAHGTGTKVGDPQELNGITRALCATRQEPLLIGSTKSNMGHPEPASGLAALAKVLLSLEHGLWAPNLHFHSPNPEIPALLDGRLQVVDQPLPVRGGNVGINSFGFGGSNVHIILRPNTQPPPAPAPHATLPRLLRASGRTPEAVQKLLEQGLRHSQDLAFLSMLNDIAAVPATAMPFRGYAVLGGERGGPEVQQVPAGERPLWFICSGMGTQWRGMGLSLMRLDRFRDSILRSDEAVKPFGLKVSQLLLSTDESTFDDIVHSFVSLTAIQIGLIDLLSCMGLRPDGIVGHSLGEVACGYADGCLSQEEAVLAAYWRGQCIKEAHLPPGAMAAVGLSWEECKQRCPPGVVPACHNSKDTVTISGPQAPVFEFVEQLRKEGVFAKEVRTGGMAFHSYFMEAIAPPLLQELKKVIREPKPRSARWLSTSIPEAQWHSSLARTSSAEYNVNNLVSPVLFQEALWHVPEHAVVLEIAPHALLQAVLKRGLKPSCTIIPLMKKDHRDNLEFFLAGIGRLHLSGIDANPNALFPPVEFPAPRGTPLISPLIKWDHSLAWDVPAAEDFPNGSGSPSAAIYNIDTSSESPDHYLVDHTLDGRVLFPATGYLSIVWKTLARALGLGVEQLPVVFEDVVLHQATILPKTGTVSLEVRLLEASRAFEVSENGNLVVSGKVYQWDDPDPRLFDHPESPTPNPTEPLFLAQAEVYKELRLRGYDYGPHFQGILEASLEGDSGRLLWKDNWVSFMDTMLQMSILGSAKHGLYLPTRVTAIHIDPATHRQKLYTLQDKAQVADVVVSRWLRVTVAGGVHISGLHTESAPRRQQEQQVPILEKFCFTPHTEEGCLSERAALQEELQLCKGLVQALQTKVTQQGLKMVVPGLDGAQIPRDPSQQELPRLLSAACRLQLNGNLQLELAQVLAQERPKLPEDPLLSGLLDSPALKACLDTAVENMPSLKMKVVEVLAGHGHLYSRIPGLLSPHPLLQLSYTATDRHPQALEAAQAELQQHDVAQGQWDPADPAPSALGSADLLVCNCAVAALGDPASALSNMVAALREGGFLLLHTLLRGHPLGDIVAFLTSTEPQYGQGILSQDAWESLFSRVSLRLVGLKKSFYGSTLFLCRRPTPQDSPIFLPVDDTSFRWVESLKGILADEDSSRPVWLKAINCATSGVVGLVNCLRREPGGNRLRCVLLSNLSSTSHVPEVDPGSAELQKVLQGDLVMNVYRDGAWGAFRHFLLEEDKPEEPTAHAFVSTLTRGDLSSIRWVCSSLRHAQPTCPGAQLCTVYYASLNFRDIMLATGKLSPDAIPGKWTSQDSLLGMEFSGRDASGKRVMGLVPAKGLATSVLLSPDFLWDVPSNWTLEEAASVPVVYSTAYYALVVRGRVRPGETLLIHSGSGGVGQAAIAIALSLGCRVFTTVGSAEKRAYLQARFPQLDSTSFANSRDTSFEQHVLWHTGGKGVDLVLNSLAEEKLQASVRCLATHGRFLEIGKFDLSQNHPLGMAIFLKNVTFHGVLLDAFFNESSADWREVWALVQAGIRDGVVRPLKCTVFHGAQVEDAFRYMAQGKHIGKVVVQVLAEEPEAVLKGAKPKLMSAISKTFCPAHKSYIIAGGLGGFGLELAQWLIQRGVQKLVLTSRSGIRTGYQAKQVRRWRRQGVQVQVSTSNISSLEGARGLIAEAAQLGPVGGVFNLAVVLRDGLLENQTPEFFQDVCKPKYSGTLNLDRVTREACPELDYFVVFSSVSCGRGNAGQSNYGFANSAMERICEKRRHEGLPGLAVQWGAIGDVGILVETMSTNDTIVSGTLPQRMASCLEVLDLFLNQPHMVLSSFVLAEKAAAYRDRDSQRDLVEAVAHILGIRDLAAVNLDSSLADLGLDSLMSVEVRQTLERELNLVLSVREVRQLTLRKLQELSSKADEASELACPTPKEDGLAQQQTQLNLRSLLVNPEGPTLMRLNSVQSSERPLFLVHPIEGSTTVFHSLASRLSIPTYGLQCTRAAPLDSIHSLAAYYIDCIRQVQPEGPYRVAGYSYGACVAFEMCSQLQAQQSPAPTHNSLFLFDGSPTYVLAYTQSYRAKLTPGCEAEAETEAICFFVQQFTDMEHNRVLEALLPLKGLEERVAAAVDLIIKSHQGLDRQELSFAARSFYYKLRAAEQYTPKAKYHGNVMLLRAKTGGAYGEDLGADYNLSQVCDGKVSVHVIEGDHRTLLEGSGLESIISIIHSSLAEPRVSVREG

Row | IC50 [nM] | Structure (SMILES)
1 | 251 | CCN1CC2(CCN(S(=O)(=O)c3ccc(-c4ccc5occc5c4)cc3)CC2)OCC1=O [Example 3, 9-{[4-(1-benzofuran-5-yl)phenyl]sulfonyl}-4-ethyl-1-oxa-4,9-diazaspiro[5.5]undecan-3-one]
2 | 1260 | O=C1COC2(CCN(S(=O)(=O)c3ccc(-c4ccccc4)cc3)CC2)CN1C1CC1 [Example 13, 9-(4-biphenylylsulfonyl)-4-cyclopropyl-1-oxa-4,9-diazaspiro[5.5]undecan-3-one]
3 | 40 | O=C1COC2(CCN(S(=O)(=O)c3ccc(-c4ccc5cc[nH]c5c4)cc3)CC2)CN1C1CC1 [Example 14, 4-cyclopropyl-9-{[4-(1H-indol-6-yl)phenyl]sulfonyl}-1-oxa-4,9-diazaspiro[5.5]undecan-3-one]
4 | 200 | O=C1COC2(CCN(S(=O)(=O)c3ccc(-c4cc5ccccc5o4)cc3)CC2)CN1C1CC1 [Example 26, 9-{[4-(1-benzofuran-2-yl)phenyl]sulfonyl}-4-cyclopropyl-1-oxa-4,9-diazaspiro[5.5]undecan-3-one]
5 | 10 | O=C1COC2(CCN(S(=O)(=O)c3ccc(-c4ccc5cccnc5c4)cc3)CC2)CN1C1CC1 [Example 29, 4-cyclopropyl-9-{[4-(7-quinolinyl)phenyl]sulfonyl}-1-oxa-4,9-diazaspiro[5.5]undecan-3-one]
6 | 13 | O=C1COC2(CCN(S(=O)(=O)c3ccc(-c4ccc5cccnc5c4)cc3F)CC2)CN1C1CC1 [Example 59, 4-cyclopropyl-9-{[2-fluoro-4-(7-quinolinyl)phenyl]sulfonyl}-1-oxa-4,9-diazaspiro[5.5]undecan-3-one]
7 | 32 | O=C1COC2(CCN(S(=O)(=O)c3ccc(-c4ccc5[nH]ccc5c4)cc3F)CC2)CN1C1CC1 [Example 70, 4-cyclopropyl-9-{[2-fluoro-4-(1H-indol-5-yl)phenyl]sulfonyl}-1-oxa-4,9-diazaspiro[5.5]undecan-3-one]
8 | 32 | O=C1COC2(CCN(S(=O)(=O)c3ccc(-c4ccc5scnc5c4)cc3F)CC2)CN1C1CC1 [Example 76, 9-{[4-(1,3-benzothiazol-5-yl)-2-fluorophenyl]sulfonyl}-4-cyclopropyl-1-oxa-4,9-diazaspiro[5.5]undecan-3-one]
9 | 6 | O=C1COC2(CCN(S(=O)(=O)c3ccc(-c4ccc5cnccc5c4)cc3)CC2)CN1C1CC1 [Example 86, 4-cyclopropyl-9-{[4-(6-isoquinolinyl)phenyl]sulfonyl}-1-oxa-4,9-diazaspiro[5.5]undecan-3-one]
10 | 63 | Cn1nc(NS(C)(=O)=O)c2cc(-c3ccc(S(=O)(=O)N4CCC5(CC4)CN(C4CC4)C(=O)CO5)cc3)ccc21 [Example 105, N-(5-{4-[(4-cyclopropyl-3-oxo-1-oxa-4,9-diazaspiro[5.5]undec-9-yl)sulfonyl]phenyl}-1-methyl-1H-indazol-3-yl)methanesulfonamide]
